Measured values as given in PubChem BioAssay (NCI).
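In this assay, cells in 96-well plates receive the compound at five concentrations for 48 hours. Endpoints are linearly interpolated between the surrounding concentrations. Definition used: TGI = concentration required for complete inhibition of growth.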

Key:
Test in all cases: DTP human tumour cell line panel, 48 h
[1] = test system: NCI-H460 lung
[2] = test system: HOP-92 NSCLC
[3] = test system: BT-549 breast
[4] = test system: OVCAR-5 ovarian
[5] = test system: PC-3 prostate
[6] = test system: SK-MEL-5 melanoma
[7] = test system: HOP-62 NSCLC
[8] = test system: COLO 205 colon
[9] = test system: MOLT-4 leukemia
[10] = test system: MDA-MB-231 breast
[11] = test system: A549 NSCLC
[12] = test system: SN12C renal
[13] = test system: EKVX NSCLC
[14] = test system: MDA-N
[15] = test system: SK-MEL-28 melanoma
[16] = test system: RPMI-8226 leukemia
[17] = test system: HS 578T breast
[18] = test system: RXF 393 renal
[19] = test system: A498 renal
[20] = test system: TK-10 renal
[21] = test system: ACHN renal
[22] = test system: DU-145 prostate
[23] = test system: IGROV1 ovarian
[24] = test system: SK-OV-3 ovarian
[25] = test system: HL-60(TB) leukemia
[26] = test system: SF-295 CNS
[27] = test system: HCC-2998 colon
[28] = test system: SW-620 colon
[29] = test system: SF-539 CNS
[30] = test system: OVCAR-4 ovarian
[31] = test system: SK-MEL-2 melanoma
[32] = test system: NCI-H23 lung
[33] = test system: NCI-H522 lung
[34] = test system: HCT-15 colon
[35] = test system: HCT-116 colon
[36] = test system: T-47D breast
[37] = test system: CCRF-CEM leukemia
[38] = test system: CAKI-1 renal
[39] = test system: OVCAR-3 ovarian
[40] = test system: SNB-19 CNS
[41] = test system: SF-268 CNS
[42] = test system: NCI/ADR-RES ovarian
[43] = test system: MCF7 breast
[44] = test system: LOX IMVI melanoma
[45] = test system: UACC-62 melanoma
[46] = test system: SNB-75 CNS
[47] = test system: HT29 colon
[48] = test system: 786-0 renal
[49] = test system: U251 CNS
[50] = test system: M14 melanoma
[51] = test system: K-562 leukemia
[52] = test system: SR leukemia
[53] = test system: UACC-257 melanoma
[54] = test system: NCI-H226 lung
[55] = test system: MDA-MB-435
[56] = test system: UO-31 renal
[57] = test system: MALME-3M melanoma
[58] = test system: OVCAR-8 ovarian

## CO[C@H]1C[C@H](O[C@H]2CC[C@]3(C=O)[C@H]4CC[C@]5(C)[C@@H](C6=CC(=O)OC6)CC[C@]5(O)[C@@H]4CC[C@]3(O)C2)O[C@H](C)[C@H]1O[C@@H]1O[C@H](CO)[C@@H](O)[C@H](O)[C@H]1O
[1]
  TGI: 0.0771 nM
[2]
  TGI: 0.141 nM
[3]
  TGI: 0.0472 nM
[4]
  TGI: 0.0697 nM
[5]
  TGI: 0.955 nM
[6]
  TGI: 0.0972 nM
[7]
  TGI: 0.0425 nM
[8]
  TGI: 0.867 nM
[9]
  TGI: 0.0132 nM
[10]
  TGI: 2.5 nM
[11]
  TGI: 0.00983 nM
[12]
  TGI: 0.0364 nM
[13]
  TGI: 0.0203 nM
[14]
  TGI: 0.074 nM
[15]
  TGI: 0.145 nM
[16]
  TGI: 0.1 nM
[17]
  TGI: > 100000 nM
[18]
  TGI: 0.154 nM
[19]
  TGI: 0.198 nM
[20]
  TGI: 0.395 nM
[21]
  TGI: 0.135 nM
[22]
  TGI: 0.0166 nM
[23]
  TGI: 139 nM
[24]
  TGI: 0.153 nM
[25]
  TGI: 11 nM
[26]
  TGI: 0.289 nM
[27]
  TGI: 27.1 nM
[28]
  TGI: 0.0747 nM
[29]
  TGI: 0.0585 nM
[30]
  TGI: 0.0307 nM
[31]
  TGI: 0.435 nM
[32]
  TGI: 0.0288 nM
[33]
  TGI: 0.0405 nM
[34]
  TGI: 0.0831 nM
[35]
  TGI: 0.035 nM
[36]
  TGI: 0.185 nM
[37]
  TGI: 25 nM

## CC1=NC2c3c(-c4ccc(Cl)cc4)cn(-c4ccc(C)cc4)c3N=CN2N1 (configuration not stated)
[1]
  TGI: > 100000 nM
[38]
  TGI: > 100000 nM
[39]
  TGI: > 100000 nM
[40]
  TGI: > 100000 nM
[2]
  TGI: 63300 nM
[41]
  TGI: > 100000 nM
[3]
  TGI: > 100000 nM
[42]
  TGI: > 100000 nM
[4]
  TGI: > 100000 nM
[43]
  TGI: > 100000 nM
[44]
  TGI: > 100000 nM
[45]
  TGI: > 100000 nM
[5]
  TGI: > 100000 nM
[46]
  TGI: 97900 nM
[6]
  TGI: > 100000 nM
[7]
  TGI: > 100000 nM
[8]
  TGI: > 100000 nM
[10]
  TGI: > 100000 nM
[11]
  TGI: > 100000 nM
[47]
  TGI: > 100000 nM
[12]
  TGI: > 100000 nM
[48]
  TGI: > 100000 nM
[13]
  TGI: > 100000 nM
[14]
  TGI: > 100000 nM
[49]
  TGI: > 100000 nM
[15]
  TGI: > 100000 nM
[17]
  TGI: 38400 nM
[18]
  TGI: > 100000 nM
[19]
  TGI: > 100000 nM
[50]
  TGI: > 100000 nM
[20]
  TGI: > 100000 nM
[21]
  TGI: > 100000 nM
[51]
  TGI: > 100000 nM
[22]
  TGI: > 100000 nM
[23]
  TGI: > 100000 nM
[52]
  TGI: > 100000 nM
[53]
  TGI: > 100000 nM
[24]
  TGI: > 100000 nM
[25]
  TGI: > 100000 nM
[26]
  TGI: > 100000 nM
[27]
  TGI: > 100000 nM
[28]
  TGI: > 100000 nM
[29]
  TGI: > 100000 nM
[30]
  TGI: 33300 nM
[31]
  TGI: > 100000 nM
[32]
  TGI: > 100000 nM
[54]
  TGI: > 100000 nM
[33]
  TGI: > 100000 nM
[34]
  TGI: > 100000 nM
[55]
  TGI: > 100000 nM
[56]
  TGI: > 100000 nM
[35]
  TGI: > 100000 nM
[57]
  TGI: > 100000 nM
[37]
  TGI: > 100000 nM
[58]
  TGI: > 100000 nM
